Laboratory results as given in the kinase profiling compilation of Christmann-Franck et al. (2016).

What was measured:
Experiment in all cases: KINOMEscan competition binding
Settings in all cases: compound 10.0 µM
ABL2 (human) = ABL2 (human) (UniProt P42684)
CLK4 (human) = CLK4 (human) (UniProt Q9HAZ1)
HIPK1 (human) = HIPK1 (human) (UniProt Q86Z02)
CDK11B (human) = CDK11B (human) (UniProt P21127)
IKBKE (human) = IKBKE (human) (UniProt Q14164)
SRPK1 (human) = SRPK1 (human) (UniProt Q96SB4)
BMPR1A (human) = BMPR1A (human) (UniProt P36894)
CSK (human) = CSK (human) (UniProt P41240)
ERBB2 (human) = ERBB2 (human) (UniProt P04626)
PRKAA1 (human) = PRKAA1 (human) (UniProt Q13131)
RPS6KA5 KD2 (human) = RPS6KA5 KD2 (human) (UniProt O75582)
RPS6KA5 KD2 (human), sequence (O75582 whole entry, looked up): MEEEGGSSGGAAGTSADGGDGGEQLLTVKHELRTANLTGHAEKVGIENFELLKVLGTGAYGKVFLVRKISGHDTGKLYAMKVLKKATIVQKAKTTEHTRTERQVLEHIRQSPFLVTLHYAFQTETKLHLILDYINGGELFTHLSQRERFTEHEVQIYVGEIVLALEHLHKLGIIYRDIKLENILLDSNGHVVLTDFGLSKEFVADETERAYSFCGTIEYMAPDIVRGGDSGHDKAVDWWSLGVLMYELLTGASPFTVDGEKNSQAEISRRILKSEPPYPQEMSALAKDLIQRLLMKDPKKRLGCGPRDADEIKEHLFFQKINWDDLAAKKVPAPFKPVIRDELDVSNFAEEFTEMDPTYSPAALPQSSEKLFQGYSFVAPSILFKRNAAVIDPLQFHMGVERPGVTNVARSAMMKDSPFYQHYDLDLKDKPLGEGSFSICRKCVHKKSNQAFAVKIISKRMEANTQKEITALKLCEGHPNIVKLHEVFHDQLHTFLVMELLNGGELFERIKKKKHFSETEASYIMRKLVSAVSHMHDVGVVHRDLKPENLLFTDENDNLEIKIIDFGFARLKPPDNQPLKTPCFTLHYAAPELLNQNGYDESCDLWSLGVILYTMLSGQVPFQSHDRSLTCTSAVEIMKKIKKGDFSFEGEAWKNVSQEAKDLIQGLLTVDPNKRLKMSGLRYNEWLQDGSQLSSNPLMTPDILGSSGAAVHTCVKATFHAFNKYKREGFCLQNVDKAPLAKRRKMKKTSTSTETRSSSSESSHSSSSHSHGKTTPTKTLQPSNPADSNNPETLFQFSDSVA

EPHA7 (human) = EPHA7 (human) (UniProt Q15375)
FER (human) = FER (human) (UniProt P16591)
PRKCD (human) = PRKCD (human) (UniProt Q05655)
CDK17 (human) = CDK17 (human) (UniProt Q00537)
RPS6KA5 KD1 (human) = RPS6KA5 KD1 (human) (UniProt O75582)
RPS6KA5 KD1 (human), sequence (O75582 whole entry, looked up): as above

CDK16 (human) = CDK16 (human) (UniProt Q00536)
STK17B (human) = STK17B (human) (UniProt O94768)
ADCK4 (human) = ADCK4 (human) (UniProt Q96D53)
MKNK1 (human) = MKNK1 (human) (UniProt Q9BUB5)
CDK7 (human) = CDK7 (human) (UniProt P50613)
PIK3CG (human) = PIK3CG (human) (UniProt P48736)
CDK9 (human) = CDK9 (human) (UniProt P50750)
CDK9 (human), sequence (P50750 whole entry, looked up): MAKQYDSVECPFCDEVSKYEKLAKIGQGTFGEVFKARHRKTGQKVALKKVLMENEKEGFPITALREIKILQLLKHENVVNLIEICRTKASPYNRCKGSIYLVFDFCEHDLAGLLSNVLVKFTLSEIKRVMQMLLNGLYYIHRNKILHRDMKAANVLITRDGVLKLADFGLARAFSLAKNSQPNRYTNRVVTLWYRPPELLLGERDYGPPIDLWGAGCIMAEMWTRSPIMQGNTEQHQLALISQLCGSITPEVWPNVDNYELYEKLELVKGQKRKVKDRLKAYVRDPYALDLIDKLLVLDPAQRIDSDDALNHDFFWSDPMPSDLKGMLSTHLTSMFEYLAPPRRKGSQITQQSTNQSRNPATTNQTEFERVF

SIK2 (human) = SIK2 (human) (UniProt Q9H0K1)
CDC42BPB (human) = CDC42BPB (human) (UniProt Q9Y5S2)
STK10 (human) = STK10 (human) (UniProt O94804)
PIK3CD (human) = PIK3CD (human) (UniProt O00329)
NTRK1 (human) = NTRK1 (human) (UniProt P04629)
MYO3A (human) = MYO3A (human) (UniProt Q8NEV4)
MYO3A (human), sequence (Q8NEV4 whole entry, looked up): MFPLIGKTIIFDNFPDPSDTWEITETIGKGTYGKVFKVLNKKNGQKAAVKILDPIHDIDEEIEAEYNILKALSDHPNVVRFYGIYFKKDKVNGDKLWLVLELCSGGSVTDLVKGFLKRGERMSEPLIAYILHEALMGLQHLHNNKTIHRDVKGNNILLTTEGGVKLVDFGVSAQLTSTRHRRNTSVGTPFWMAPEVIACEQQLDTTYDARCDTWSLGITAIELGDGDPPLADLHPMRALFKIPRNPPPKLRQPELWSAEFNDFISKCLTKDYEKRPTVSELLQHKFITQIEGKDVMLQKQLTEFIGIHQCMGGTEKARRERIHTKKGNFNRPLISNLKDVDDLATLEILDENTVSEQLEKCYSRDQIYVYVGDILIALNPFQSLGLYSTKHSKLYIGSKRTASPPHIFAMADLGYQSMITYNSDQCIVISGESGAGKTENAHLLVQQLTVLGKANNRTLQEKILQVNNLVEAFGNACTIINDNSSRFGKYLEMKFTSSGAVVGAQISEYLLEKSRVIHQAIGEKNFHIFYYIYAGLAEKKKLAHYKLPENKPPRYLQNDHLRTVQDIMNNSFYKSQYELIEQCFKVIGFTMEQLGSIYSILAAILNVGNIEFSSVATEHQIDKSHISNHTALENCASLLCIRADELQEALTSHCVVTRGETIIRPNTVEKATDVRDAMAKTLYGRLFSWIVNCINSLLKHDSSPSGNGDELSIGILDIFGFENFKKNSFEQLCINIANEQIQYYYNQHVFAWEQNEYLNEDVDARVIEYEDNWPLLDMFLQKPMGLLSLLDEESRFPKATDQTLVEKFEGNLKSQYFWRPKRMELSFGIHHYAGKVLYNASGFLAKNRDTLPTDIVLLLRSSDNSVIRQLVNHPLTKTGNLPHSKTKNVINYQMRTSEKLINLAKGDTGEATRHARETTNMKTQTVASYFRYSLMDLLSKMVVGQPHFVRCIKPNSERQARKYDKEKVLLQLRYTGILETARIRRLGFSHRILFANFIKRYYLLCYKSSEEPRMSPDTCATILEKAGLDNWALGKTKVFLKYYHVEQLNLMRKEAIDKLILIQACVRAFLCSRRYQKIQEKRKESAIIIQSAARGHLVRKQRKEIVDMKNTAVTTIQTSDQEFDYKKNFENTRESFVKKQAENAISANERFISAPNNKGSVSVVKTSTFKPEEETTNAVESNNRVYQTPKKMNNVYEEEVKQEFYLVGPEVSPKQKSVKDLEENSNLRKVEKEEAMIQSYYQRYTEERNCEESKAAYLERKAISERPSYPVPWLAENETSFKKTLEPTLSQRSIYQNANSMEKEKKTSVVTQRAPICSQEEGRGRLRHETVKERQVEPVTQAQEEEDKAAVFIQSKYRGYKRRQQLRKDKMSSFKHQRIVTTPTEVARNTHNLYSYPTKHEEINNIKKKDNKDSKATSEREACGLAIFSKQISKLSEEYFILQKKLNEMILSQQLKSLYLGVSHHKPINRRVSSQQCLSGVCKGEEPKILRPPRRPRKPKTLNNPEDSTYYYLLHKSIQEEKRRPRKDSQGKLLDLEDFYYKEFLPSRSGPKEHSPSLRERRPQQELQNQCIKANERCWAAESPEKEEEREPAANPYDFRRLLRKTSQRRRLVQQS

DMPK (human) = DMPK (human) (UniProt Q09013)
LCK (human) = LCK (human) (UniProt P06239)
[1] = tested on: EGFR (human), P00533 [752-759 del]
ERN1 (human) = ERN1 (human) (UniProt O75460)
HIPK2 (human) = HIPK2 (human) (UniProt Q9H2X6)
YSK4 (human) = YSK4 (human) (UniProt Q56UN5)
[2] = tested on: KIT (human), P10721 [L576P]
STK39 (human) = STK39 (human) (UniProt Q9UEW8)

CDK11B (human), sequence (P21127 whole entry, looked up): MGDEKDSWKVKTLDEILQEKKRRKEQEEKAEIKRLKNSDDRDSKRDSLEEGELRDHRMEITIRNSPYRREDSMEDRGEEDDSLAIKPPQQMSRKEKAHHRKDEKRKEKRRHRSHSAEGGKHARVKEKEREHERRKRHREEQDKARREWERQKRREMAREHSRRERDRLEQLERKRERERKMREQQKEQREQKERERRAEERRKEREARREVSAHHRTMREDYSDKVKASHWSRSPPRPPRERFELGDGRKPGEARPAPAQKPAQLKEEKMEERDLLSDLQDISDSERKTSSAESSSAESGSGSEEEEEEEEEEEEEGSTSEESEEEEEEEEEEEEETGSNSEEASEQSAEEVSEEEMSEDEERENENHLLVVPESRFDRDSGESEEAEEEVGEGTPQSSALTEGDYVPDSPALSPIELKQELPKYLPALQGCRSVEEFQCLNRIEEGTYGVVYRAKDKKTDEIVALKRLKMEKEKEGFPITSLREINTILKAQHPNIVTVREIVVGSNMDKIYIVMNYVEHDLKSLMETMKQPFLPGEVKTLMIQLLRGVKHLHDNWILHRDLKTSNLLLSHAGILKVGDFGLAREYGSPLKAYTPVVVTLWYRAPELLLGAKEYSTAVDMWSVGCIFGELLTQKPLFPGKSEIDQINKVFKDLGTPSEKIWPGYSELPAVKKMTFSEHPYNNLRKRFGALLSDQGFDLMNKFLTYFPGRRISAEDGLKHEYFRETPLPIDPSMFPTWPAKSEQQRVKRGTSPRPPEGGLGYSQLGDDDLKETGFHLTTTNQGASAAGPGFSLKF
HIPK1 (human), sequence (Q86Z02 whole entry, looked up): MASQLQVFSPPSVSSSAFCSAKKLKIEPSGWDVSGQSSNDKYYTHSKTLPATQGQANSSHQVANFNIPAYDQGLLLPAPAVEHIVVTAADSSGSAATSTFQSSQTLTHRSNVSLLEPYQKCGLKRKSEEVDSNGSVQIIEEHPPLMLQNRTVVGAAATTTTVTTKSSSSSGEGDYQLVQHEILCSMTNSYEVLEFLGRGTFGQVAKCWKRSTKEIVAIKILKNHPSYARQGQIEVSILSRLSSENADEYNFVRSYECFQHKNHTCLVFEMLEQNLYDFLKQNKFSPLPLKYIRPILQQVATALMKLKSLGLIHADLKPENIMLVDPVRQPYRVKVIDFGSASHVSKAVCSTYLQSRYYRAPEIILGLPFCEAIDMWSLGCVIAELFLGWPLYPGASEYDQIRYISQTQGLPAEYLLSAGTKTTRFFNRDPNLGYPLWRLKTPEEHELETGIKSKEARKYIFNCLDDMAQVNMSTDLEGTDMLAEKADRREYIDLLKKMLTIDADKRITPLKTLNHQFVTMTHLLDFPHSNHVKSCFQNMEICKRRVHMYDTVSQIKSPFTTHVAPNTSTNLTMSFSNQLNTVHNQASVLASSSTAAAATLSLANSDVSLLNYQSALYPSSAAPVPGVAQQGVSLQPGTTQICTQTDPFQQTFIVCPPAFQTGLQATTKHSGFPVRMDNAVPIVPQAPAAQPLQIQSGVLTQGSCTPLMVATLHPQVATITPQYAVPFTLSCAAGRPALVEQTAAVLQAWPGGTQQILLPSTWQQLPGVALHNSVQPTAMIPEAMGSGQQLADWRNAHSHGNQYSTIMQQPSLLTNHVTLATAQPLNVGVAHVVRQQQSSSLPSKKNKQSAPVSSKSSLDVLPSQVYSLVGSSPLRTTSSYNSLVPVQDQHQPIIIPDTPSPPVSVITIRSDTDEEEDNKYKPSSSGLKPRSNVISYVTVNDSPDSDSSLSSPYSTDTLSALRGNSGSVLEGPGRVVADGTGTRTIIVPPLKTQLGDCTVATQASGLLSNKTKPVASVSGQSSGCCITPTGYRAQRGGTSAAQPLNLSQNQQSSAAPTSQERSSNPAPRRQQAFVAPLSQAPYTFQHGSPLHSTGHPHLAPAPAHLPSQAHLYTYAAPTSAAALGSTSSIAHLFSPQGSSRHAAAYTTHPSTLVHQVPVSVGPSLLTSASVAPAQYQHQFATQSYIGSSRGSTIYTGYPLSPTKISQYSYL

| SMILES | kinase still bound, per cent of control (ABL2 (human)) | kinase still bound, per cent of control (CDK11B (human)) | kinase still bound, per cent of control (IKBKE (human)) | kinase still bound, per cent of control (SRPK1 (human)) | kinase still bound, per cent of control (CSK (human)) | kinase still bound, per cent of control (ERBB2 (human)) | kinase still bound, per cent of control (PRKAA1 (human)) | kinase still bound, per cent of control (RPS6KA5 KD2 (human)) | kinase still bound, per cent of control (EPHA7 (human)) | kinase still bound, per cent of control (FER (human)) | kinase still bound, per cent of control (PRKCD (human)) | kinase still bound, per cent of control (CDK17 (human)) | kinase still bound, per cent of control (RPS6KA5 KD1 (human)) | kinase still bound, per cent of control (STK17B (human)) | kinase still bound, per cent of control (ADCK4 (human)) | kinase still bound, per cent of control (MKNK1 (human)) | kinase still bound, per cent of control (CDK7 (human)) | kinase still bound, per cent of control (CDK9 (human)) | kinase still bound, per cent of control (SIK2 (human)) | kinase still bound, per cent of control (CDC42BPB (human)) | also measured |
| --- | --- | --- | --- | --- | --- | --- | --- | --- | --- | --- | --- | --- | --- | --- | --- | --- | --- | --- | --- | --- | --- |
| Cc1n[nH]c2ccc(-c3cncc(OC[C@@H](N)Cc4c[nH]c5ccccc45)c3)cc12 | 100% | 100% | 24% | 17% | 100% | 100% | 100% | 17% | 100% | 100% | 0.85% | 25% | 11% | 20% | 100% | 19% | 0.3% | 1.9% | 100% | 1% | kinase still bound, per cent of control (CLK4 (human)): 2.6%; kinase still bound, per cent of control (HIPK1 (human)): 0.05%; kinase still bound, per cent of control (BMPR1A (human)): 100%; kinase still bound, per cent of control (CDK16 (human)): 16%; kinase still bound, per cent of control (PIK3CG (human)): 100%; kinase still bound, per cent of control (STK10 (human)): 100%; kinase still bound, per cent of control (PIK3CD (human)): 100%; kinase still bound, per cent of control (NTRK1 (human)): 100%; kinase still bound, per cent of control (MYO3A (human)): 100%; kinase still bound, per cent of control (DMPK (human)): 0.8%; kinase still bound, per cent of control (LCK (human)): 100% |
| CCN(CC)CCCCNc1ncc2cc(-c3cc(OC)cc(OC)c3)c(NC(=O)NC(C)(C)C)nc2n1 | 100% | 100% | 100% | 100% | 100% | 100% | 100% | 100% | 100% | 100% | 100% | 100% | 100% | 100% | 100% | 100% | 100% | 100% | 100% | 100% | kinase still bound, per cent of control (CLK4 (human)): 100%; kinase still bound, per cent of control (CDK16 (human)): 100%; kinase still bound, per cent of control (STK10 (human)): 100%; kinase still bound, per cent of control (NTRK1 (human)): 100%; kinase still bound, per cent of control (MYO3A (human)): 100%; kinase still bound, per cent of control (DMPK (human)): 100%; kinase still bound, per cent of control (LCK (human)): 22% |
| CNC(=O)c1ccc(Nc2cc(Nc3ccccc3S(=O)(=O)C(C)C)c3cc[nH]c3n2)nc1 | 9.4% | 100% | 100% | 2% | 100% | 100% | 4.6% | 100% | 1.7% | 1.1% | 15% | 100% | 100% | 33% | 25% | 100% | 1.8% | 100% | 9.8% | 100% | kinase still bound, per cent of control (CLK4 (human)): 0.35%; kinase still bound, per cent of control (HIPK1 (human)): 100%; kinase still bound, per cent of control [1]: 100%; kinase still bound, per cent of control (BMPR1A (human)): 100%; kinase still bound, per cent of control (CDK16 (human)): 22%; kinase still bound, per cent of control (PIK3CG (human)): 100%; kinase still bound, per cent of control (STK10 (human)): 0%; kinase still bound, per cent of control (PIK3CD (human)): 100%; kinase still bound, per cent of control (NTRK1 (human)): 0.75%; kinase still bound, per cent of control (MYO3A (human)): 100%; kinase still bound, per cent of control (DMPK (human)): 10%; kinase still bound, per cent of control (LCK (human)): 0.3% |
| C=CC(=O)Nc1ccc(CN(C(=O)Nc2c(Cl)c(OC)cc(OC)c2Cl)c2cc(Nc3ccc(N4CCN(C)CC4)cc3)ncn2)cc1 | 9.1% | 100% | 100% | 100% | 100% | 16% | 100% | 100% | 100% | 100% | 100% | 100% | 100% | 100% | 100% | 100% | 100% | 100% | 100% | 100% | kinase still bound, per cent of control (CLK4 (human)): 100%; kinase still bound, per cent of control (HIPK1 (human)): 100%; kinase still bound, per cent of control [1]: 2.3%; kinase still bound, per cent of control (BMPR1A (human)): 100%; kinase still bound, per cent of control (CDK16 (human)): 100%; kinase still bound, per cent of control (PIK3CG (human)): 100%; kinase still bound, per cent of control (STK10 (human)): 0.1%; kinase still bound, per cent of control (PIK3CD (human)): 100%; kinase still bound, per cent of control (NTRK1 (human)): 100%; kinase still bound, per cent of control (MYO3A (human)): 100%; kinase still bound, per cent of control (DMPK (human)): 100%; kinase still bound, per cent of control (LCK (human)): 0.2% |
| CS(=O)(=O)N1CCN(Cc2cc3nc(-c4cccc5[nH]ncc45)nc(N4CCOCC4)c3s2)CC1 | 100% | 100% | 100% | 100% | 100% | 100% | 100% | 100% | 100% | 100% | 100% | 100% | 100% | 100% | 100% | 100% | 100% | 100% | 100% | 100% | kinase still bound, per cent of control (HIPK1 (human)): 100%; kinase still bound, per cent of control [1]: 100%; kinase still bound, per cent of control (ERN1 (human)): 100%; kinase still bound, per cent of control (BMPR1A (human)): 100%; kinase still bound, per cent of control (HIPK2 (human)): 100%; kinase still bound, per cent of control (YSK4 (human)): 100%; kinase still bound, per cent of control [2]: 100%; kinase still bound, per cent of control (STK10 (human)): 100%; kinase still bound, per cent of control (PIK3CD (human)): 5.2%; kinase still bound, per cent of control (NTRK1 (human)): 100%; kinase still bound, per cent of control (MYO3A (human)): 100%; kinase still bound, per cent of control (STK39 (human)): 100%; kinase still bound, per cent of control (DMPK (human)): 100%; kinase still bound, per cent of control (LCK (human)): 100% |
